In ChEMBL document CHEMBL5726952, “Compounds” (2019):

Legend:
Assay in all cases: Kinase Screening Assay: Compound IC50 values were determined from 10-point, 1:3 dilution curves starting at either 100 μM or 10 μM with 10 μM ATP, by Reaction Biology Corp. For the whole kinome screen compounds were screened against 340 wild type kinases at a single dose of 1 μM, in duplicate, with 10 μM of ATP by Reaction Biology Corp. The data was averaged and plotted as percentage enzyme …
[1] = target: Mast/stem cell growth factor receptor Kit (Homo sapiens, UniProt P10721)
[2] = target: Tyrosine-protein kinase HCK (Homo sapiens, UniProt P08631)
[3] = target: Proto-oncogene tyrosine-protein kinase receptor Ret (Homo sapiens, UniProt P07949)
[4] = target: Tyrosine-protein kinase Blk (Homo sapiens, UniProt P51451)
[5] = target: Platelet-derived growth factor receptor alpha (Homo sapiens, UniProt P16234)

Measured: IC50

Sequence of Mast/stem cell growth factor receptor Kit (P10721 whole entry): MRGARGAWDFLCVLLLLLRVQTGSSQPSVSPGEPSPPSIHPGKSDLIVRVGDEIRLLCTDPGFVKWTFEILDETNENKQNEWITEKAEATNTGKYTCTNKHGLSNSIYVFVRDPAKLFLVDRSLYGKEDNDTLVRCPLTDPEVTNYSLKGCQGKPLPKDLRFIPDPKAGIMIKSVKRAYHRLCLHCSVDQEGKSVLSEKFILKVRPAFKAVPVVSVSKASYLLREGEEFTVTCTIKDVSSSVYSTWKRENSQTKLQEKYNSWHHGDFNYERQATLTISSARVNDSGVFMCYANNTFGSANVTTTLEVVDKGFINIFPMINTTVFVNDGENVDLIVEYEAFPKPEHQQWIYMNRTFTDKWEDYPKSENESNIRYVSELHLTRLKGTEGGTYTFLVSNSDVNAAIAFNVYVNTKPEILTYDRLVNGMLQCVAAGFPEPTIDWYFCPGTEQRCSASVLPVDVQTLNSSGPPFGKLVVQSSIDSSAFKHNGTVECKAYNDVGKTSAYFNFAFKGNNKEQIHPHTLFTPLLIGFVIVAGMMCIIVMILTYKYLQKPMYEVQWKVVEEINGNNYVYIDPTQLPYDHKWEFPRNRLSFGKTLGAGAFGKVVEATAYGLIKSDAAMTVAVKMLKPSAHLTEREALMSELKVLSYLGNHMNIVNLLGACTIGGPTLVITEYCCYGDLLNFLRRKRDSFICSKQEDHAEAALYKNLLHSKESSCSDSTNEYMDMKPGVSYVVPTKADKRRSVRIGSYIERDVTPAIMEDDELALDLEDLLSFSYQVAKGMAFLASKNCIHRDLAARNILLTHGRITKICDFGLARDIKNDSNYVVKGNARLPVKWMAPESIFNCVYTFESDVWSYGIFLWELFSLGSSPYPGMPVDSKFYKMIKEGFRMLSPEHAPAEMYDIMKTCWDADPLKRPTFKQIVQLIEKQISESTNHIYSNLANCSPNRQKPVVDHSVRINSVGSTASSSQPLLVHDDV
Sequence of Tyrosine-protein kinase Blk (P51451 whole entry): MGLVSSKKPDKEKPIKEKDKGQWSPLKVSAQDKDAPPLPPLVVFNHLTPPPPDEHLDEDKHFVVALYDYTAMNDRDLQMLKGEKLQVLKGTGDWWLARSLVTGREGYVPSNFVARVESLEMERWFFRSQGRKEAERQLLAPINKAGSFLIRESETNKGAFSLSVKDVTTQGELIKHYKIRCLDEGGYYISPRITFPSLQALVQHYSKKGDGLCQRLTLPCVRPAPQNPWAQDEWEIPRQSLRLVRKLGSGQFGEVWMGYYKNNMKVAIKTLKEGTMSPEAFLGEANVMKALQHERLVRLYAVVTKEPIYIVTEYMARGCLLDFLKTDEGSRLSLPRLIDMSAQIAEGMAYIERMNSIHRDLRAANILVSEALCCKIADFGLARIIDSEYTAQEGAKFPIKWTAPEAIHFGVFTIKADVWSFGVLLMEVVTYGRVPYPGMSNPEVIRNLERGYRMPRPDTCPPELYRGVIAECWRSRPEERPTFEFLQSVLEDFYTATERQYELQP
Sequence of Proto-oncogene tyrosine-protein kinase receptor Ret (P07949 whole entry): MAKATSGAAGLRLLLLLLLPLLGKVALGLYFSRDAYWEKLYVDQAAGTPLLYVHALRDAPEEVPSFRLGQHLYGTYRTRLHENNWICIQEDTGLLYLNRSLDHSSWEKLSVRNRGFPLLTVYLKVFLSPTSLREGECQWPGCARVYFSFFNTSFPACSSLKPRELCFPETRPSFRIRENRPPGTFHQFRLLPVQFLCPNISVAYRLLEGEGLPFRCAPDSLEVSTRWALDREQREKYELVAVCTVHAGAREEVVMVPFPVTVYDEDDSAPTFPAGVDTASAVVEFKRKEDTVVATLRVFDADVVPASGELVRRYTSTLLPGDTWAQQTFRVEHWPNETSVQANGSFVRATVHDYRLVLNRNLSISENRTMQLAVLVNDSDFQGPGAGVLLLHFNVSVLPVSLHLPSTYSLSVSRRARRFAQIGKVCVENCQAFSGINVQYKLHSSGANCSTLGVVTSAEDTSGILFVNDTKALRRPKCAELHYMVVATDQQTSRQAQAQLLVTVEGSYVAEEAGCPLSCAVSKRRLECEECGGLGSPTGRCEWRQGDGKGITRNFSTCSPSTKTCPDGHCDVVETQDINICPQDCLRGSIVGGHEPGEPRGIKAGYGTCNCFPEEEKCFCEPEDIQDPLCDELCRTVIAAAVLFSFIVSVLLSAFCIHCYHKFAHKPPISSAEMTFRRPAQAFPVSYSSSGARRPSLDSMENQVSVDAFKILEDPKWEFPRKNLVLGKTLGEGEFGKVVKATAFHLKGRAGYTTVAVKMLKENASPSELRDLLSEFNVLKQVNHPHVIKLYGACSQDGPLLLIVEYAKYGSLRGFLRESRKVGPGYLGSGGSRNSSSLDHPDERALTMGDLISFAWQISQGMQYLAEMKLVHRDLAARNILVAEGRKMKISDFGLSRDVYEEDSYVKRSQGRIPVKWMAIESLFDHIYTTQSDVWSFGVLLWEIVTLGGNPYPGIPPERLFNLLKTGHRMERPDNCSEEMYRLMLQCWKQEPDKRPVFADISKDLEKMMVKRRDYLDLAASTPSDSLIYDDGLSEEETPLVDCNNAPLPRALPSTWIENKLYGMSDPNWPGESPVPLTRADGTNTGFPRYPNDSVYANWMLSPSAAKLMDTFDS
Sequence of Platelet-derived growth factor receptor alpha (P16234 whole entry): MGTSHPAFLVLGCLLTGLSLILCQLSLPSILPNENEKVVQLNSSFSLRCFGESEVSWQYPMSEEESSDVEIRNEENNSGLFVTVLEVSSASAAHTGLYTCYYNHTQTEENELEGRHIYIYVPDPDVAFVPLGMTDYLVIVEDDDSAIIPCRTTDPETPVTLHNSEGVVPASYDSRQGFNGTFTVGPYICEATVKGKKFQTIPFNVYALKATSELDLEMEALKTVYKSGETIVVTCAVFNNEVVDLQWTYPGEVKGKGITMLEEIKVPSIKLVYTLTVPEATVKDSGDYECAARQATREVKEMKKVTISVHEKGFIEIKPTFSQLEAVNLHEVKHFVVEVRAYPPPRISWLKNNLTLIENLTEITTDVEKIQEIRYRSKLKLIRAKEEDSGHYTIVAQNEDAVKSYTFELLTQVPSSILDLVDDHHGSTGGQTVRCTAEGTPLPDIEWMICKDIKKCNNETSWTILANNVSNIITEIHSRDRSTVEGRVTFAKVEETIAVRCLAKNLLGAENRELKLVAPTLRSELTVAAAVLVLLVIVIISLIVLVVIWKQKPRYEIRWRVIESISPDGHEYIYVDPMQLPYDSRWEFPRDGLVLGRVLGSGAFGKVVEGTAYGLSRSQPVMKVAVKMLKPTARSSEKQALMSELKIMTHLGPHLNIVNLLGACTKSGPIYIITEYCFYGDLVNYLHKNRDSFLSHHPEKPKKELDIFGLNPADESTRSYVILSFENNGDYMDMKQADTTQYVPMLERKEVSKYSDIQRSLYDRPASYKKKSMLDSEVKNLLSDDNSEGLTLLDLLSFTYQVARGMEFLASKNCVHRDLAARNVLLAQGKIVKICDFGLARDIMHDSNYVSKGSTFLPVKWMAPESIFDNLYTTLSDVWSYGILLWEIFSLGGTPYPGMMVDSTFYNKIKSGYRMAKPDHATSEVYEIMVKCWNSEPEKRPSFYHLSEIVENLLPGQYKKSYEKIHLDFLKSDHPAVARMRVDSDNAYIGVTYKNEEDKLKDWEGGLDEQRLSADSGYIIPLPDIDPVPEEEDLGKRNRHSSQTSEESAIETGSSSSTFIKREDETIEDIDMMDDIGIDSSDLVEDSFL
Sequence of Tyrosine-protein kinase HCK (P08631 whole entry): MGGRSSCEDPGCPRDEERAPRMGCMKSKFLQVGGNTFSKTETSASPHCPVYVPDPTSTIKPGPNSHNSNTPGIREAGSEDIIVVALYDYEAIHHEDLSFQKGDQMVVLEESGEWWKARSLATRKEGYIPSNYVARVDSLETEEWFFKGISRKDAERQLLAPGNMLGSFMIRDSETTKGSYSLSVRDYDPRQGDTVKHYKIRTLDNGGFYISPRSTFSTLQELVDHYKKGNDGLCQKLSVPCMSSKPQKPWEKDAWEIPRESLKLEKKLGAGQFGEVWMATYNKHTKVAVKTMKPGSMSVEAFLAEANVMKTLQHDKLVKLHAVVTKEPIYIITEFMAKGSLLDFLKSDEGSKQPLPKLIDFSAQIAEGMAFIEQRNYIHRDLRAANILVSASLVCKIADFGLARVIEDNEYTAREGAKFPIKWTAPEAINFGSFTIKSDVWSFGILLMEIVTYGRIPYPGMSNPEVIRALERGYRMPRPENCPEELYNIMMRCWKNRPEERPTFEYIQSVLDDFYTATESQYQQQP

Cc1ccc(-c2nn(CCN3CCC(N(C)C)CC3)c3ncnc(N)c23)cc1
> 1000 nM: all assays above
